Here are results for 3 compounds from patent publication US20240360060A1, “6-HYDROXY-CANNABIDIOL-C4” (GW RESEARCH LIMITED, priority 2021, published 2024).

Values joined by “and” are separate entries in the source; they are usually repeats but may differ in a detail not shown here. Equal values may be shown once. Read-outs that look alike come from different tables or passages of the source. Bounds are passed on as bounds.

A short description of data set [1]: Bioanalysis of Compound I in plasma and brain (UPLC-MS/MS). Type of data set: in vivo, mice. As to conditions: 150 mg/kg i.p., 30 min post-dose, mouse; for concentration at 30 min: ip, 150 mg/kg. The method, then: Each animal was humanely killed immediately after production of a convulsion by destruction of the brain from striking the cranium, followed by the confirmation of permanent cessation of the circulation from decapitation under The Humane Killing of Animals under Schedule 1 to the Animals (Scientific Procedures) Act 1986. Terminal blood and brain collection were performed following decapitation.
Blood was collected in Lithium-heparin tubes and centrifuged at 4° C. for 10 minutes at 1500×g. The resulting plasma was removed (>100 μL) and split into 2 aliquots of 0.5 mL Eppendorf tubes containing 10 μL of ascorbic acid (100 mg/mL) for stabilisation. Brains were removed, washed in saline and halved. Each half was placed into separate 2 mL screw cap cryovials, weighed and frozen on cardice.
Bioanalysis experiments were carried out to determine the quantitative measurement of Compound I in plasma and brain.
Six mice were dosed with Compound I at 150 mg/kg via intraperitoneal (i.p) injection. Sample analysis was performed 30 min post-dose using a sample volume of 40 μL. Following addition of internal standard (in acetonitrile) and Isopropanol samples were protein precipitated by addition of acetonitrile. Samples were centrifuged and supernatant transferred to a clean 96-well plate (with addition of Tween to minimise non-specific binding to plate materials), evaporated to dryness then reconstituted in suitable solvent. The extracts quantified by ultraperformance liquid chromatography-tandem mass spectromtry (UPLC-MS/MS).

Data set [2] deals with mouse model of generalised seizure (tonic hind limb extensor convulsions). The experiment in a line: mini-MEST (maximal electroshock seizure threshold) test in the mouse. As to conditions: 30 min post dose. The method, then:
The maximal electroshock seizure threshold (MEST) test is widely utilized preclinically to evaluate pro- or anti-convulsant properties of test compounds (Loscher et al., 1991).
In the MEST test the ability of a drug to alter the seizure threshold current required to induce hind limb tonic extensor convulsions is measured according to an “up and down” method of shock titration (Kimball et al., 1957). An increase in seizure threshold is indicative of anti-convulsant effect.
The ability of a test compound to alter the stimulus intensity, expressed as current (mA), required to induce the presence of tonic hind limb extensor convulsions, is assessed in the MEST.
Naïve mice were acclimatized to the procedure room in their home cages for up to 7 days, with food and water available ad libitum.
All animals were weighed at the beginning of the study and randomly assigned to treatment groups based on a mean distribution of body weight across groups.
The first animal within a treatment group was given a shock at the expected or estimated CC50 current. For subsequent animals, the current was lowered or raised depending on the convulsions outcome from the preceding animal in log scale intervals.
Data generated from each treatment group were used to calculate the CC50±SEM values for the treatment group.
The test compound, described herein as Compound I, are as shown as Formula I. Test compound was administered at 150 mg/kg (i.p.) in a 1:2:17 ethanol:solutol:0.9% saline formulation.
The data for each treatment group were recorded as the number of +'s and 0's at each current level employed and this information is then used to calculate the CC50 value (current required for 50% of the animals to show seizure behaviour)±standard error.
Test compound effects were also calculated as percentage change in CC50 from the vehicle control group.
Significant difference between drug-treated animals and controls were assessed according to Litchfield and Wilcoxon (1949).
A general note: Protection in the maximal electroshock model is a classic sign of anticonvulsant action.

In data set [3] the test system is MES model of generalised seizure. The settings on record: earlier filing WO 2020/104796; cited from earlier work.

Consider `C=C(C)[C@@H]1C[C@H](O)C(C)=C[C@H]1c1c(O)cc(CCCC)cc1O` [Compound I, (1′R,2′R,4′S)-4-butyl-5′-methyl-2′-(prop-1-en-2-yl)-1′,2′,3′,4′-tetrahydro-[1,1′-biphenyl]-2,4′,6-triol], for which the “Conc. in brain (individual animals; head: Plasma Conc.)” value in data set [1] (brain) was 17.696 µM and 200.472 µM and 183.889 µM and 173.842 µM and 212.516 µM and 228.344 µM. The concentration at 30 min in data set [1] (brain, brain, n=6, read-out: Mean conc. in brain (head: Mean Plasma Conc.)) was found to be 169 µM; in data set [1] (plasma, plasma, n=6, read-out: Mean Plasma Conc.), 255 µM. Besides, in data set [1] (plasma), the “Plasma Conc. (individual animals)” value is 379.642 µM and 242.369 µM and 47.322 µM and 295.516 µM and 268.44 µM and 299.404 µM. Further, in data set [2] (150 mg/kg i.p., 6 animals), the “tonic hind limb convulsions in treatment group” value was “did not have any convulsions”. In addition, in data set [2] (150 mg/kg i.p., N=6), the “CC50 +/- SEM (current required for 50% of the animals to show seizure behaviour)” value is recorded as greater than 131 mA.
As for `CN1C(=O)CN=C(c2ccccc2)c2cc(Cl)ccc21` [Diazepam, diazepam, reference compound], in data set [2] (2.5 mg/kg i.p.), the “% change from vehicle (CC50)” value was found to be 291%.
Turning to `C=C(C)[C@@H]1CCC(C)=C[C@H]1c1c(O)cc(CCCC)cc1O` [CBD-C4, Cannabidiol-C4], in data set [3], the anti-convulsant activity entry was “Therapeutic efficacy was shown”.
